Assay results published in patent US20250367191A1, “TREATMENT OF MITOCHONDRIAL DISEASES WITH A CNS-PENETRANT SGC STIMULATOR ZAGOCIGUAT” (Tisento Therapeutics Inc., priority 2022, published 2025).

Experiments:
[1] = Open-label single-arm study in MELAS (NCT04475549): safety and tolerability; format: in vivo, human; details: 15 mg QD for 29 days, patients with MELAS
Excerpt: This study was completed at 5 investigative sites in the United States. 8 participants completed the study. This study was an open-label, single-arm study evaluating the safety, tolerability, PK, and pharmacodynamics (PD) of Compound I when administered for up to 29 days to participants diagnosed with MELAS. Because this was the first study evaluating Compound I in a patient population, the primary objective was safety and tolerability. The overall study duration for participants was a maximum of 75 days, including the screening, treatment and follow up periods (ClinicalTrials.gov identifier NCT04475549).
The primary objective of the trial was to evaluate the safety and tolerability of Compound I when administered to a patient population of subjects with MELAS, by measuring AEs, SAEs and TEAEs leading to drug discontinuation.
Compound I is a CNS-active investigational drug. Although Compound I and other similar drugs in this class have not been associated with an increased risk of suicidal thinking or behavior, it was considered it important to monitor for such ideation or behavior before and during this clinical study. Therefore, participants were appropriately monitored and closely observed for suicidal ideation and behavior or any other unusual change in behavior. […]
A complete physical examination was to include examination and assessment of the following: general appearance, lymph nodes, nervous system; cardiovascular system; head, eyes, ears, nose, throat and skin; respiratory system, neck, mental status, abdomen/liver/spleen and musculoskeletal system. […] Clinically relevant findings that were present before study drug initiation on Day 1 were recorded as part of the participant's medical history. Beginning after study drug initiation on Day 1, new clinically relevant findings or worsening of an earlier finding were recorded as an AE. Height (cm) was measured only at Screening. Weight (kg) was recorded throughout the study. Body mass index was calculated and recorded at Screening.
All BP and pulse measurements were obtained with an automated BP device (left arm was preferred) prior to blood draws (or ≥10 m after a blood draw, if necessary). Supine BP was taken at Screening (only) and recorded as the average of 2 measurements obtained at 2-minute intervals after the participant had rested quietly in a semi-recumbent/supine position for ≥5 minutes. Orthostatic vital signs were taken at all scheduled visits and participant was to rest quietly in a supine/semi-recumbent position for ≥5 minutes before supine BP and pulse measurements were recorded, then assume sitting position for ≥1 minute, and finally assume a standing position for 2 (±1) minutes before standing measurements were recorded. […]

[2] = system: participants diagnosed with MELAS; test: MELAS study: cerebral blood flow by arterial spin labeling (ASL); format: in vivo, human; details: 15 mg QD
Experimental: Two exploratory functional neuroimaging modalities, arterial spin labeling (ASL) and functional magnetic resonance imaging (fMRI), were used to measure the potential PD effects of Compound I in the brain. While ASL quantifies regional CBF during the resting state, fMRI is a relative measure based on the blood-oxygen-level-dependent (BOLD) effect and was conducted during both a resting state and during a visual stimulus to measure brain activity.
Each individual MRI scanning session took approximately 45 minutes (maximum of ˜1 hour).
This change was observed across all brain regions of interest. Effect size throughout this disclosure is defined as the means change from baseline in a particular parameter that is being measured, divided by the standard deviation. Effect sizes closer to 1 or −1 (positive or negative dependent on the direction of movement for the specific parameter, i.e. +0.8 to +1.0 or −0.8 to −1.0) are usually considered large. Effect sizes between 0.5 and 0.8 or −0.5 and −0.8 (positive or negative dependent on the direction of movement for the specific parameter) are usually considered moderate. Effect sizes closer to below 0.5 or −0.5 (positive or negative dependent on the direction of movement for the specific parameter) are usually considered small.

[3] = system: participants diagnosed with MELAS; test: MELAS study: patient-reported outcomes (PGIC, MFIS, PROMIS); format: in vivo, human
Excerpt: The Patient-reported Outcomes Measurement Information System (PROMIS) Item Bank v2.0—Cognitive Function is a self-administered questionnaire that assesses multiple aspects of mental fatigue and cognitive function in the past 7 days prior to the administration of the questionnaire. It uses a Likert-type rating scale (eg, “Never” to “Very often”).
The Patient Global Impression of Change (PGIC) is a single-item questionnaire that assesses the participant's perception of change in his/her overall health status since the start of the study using a Likert-type rating scale (eg, “Very much improved” to “Very much worse”).
The Modified Fatigue Impact Scale (MFIS) is a self-administered questionnaire that assesses the impact of fatigue in terms of physical, cognitive, and psychosocial functioning over the past 4 weeks. Patients respond using a Likert-type rating scale. (eg, “Never” to “Almost always”).

[4] = Two Phase 1 studies in healthy adults aged 18 to 79: safety, PK, PD; format: in vivo, human
Excerpt: The 15-mg Compound I QD dose was selected based on safety, tolerability, PK, and PD data from repeated dosing at this level in two Phase 1 studies conducted in healthy adults aged 18 to 79 years. […] Across the Phase 1 studies, no safety concerns were identified. […] No impact on cognitive performance measures was observed.

[5] = Clinical trial in patients with stable schizophrenia: PK and safety; format: in vivo, human; details: total oral daily dosages up to 60 mg per day
[6] = system: mitochondrial disease patient cells; details: cited from earlier work
mice = mice pretreated, compared with vehicle-treated mice; cited from earlier work
[7] = healthy elderly, 15 mg QD, after 14 days
[8] = healthy participants, 15 mg QD for up to 15 days

SMILES: Fc1ccccc1Cc1nc(-c2nc(C(F)(F)F)n[nH]2)cn2ccnc12 [Compound I, zagociguat]
- SAEs [1]: no SAEs observed
- adverse events leading to treatment discontinuation [1]: no adverse events leading to treatment discontinuation
- safety signals on clinical labs, vital signs, ECGs, or suicidal rating scale [1]: No safety signals
- tolerability [1]: well tolerated
- CBF on day 29 compared to baseline (day 1) ([2]; ASL, all brain regions of interest): increase of CBF
- patients with increased CBF between day 1 and day 29 ([2]; individual patients): 5 of the 8
- participants reporting improvement in their disease (PGIC) ([3]; 8 participants): Three of the 8
- participants reporting no change in their disease (PGIC) ([3]; 8 participants): 4
- participants reporting their disease as much worse (PGIC) ([3]; 8 participants): 1
- changes in MFIS and PROMIS at the study level ([3]; Day 29): not observed
- PK data, dose dependence ([4]; Phase 1 studies): linear and dose-dependent
- PK data, effect of food ([4]; Phase 1 studies): not impacted by food
- cognitive performance measures [4, 7]: No impact
- neurophysiological parameters by EEG [4, 7]: modest impacts
- SAEs [4, 8]: no SAEs reported
- discontinuations due to AEs [4, 8]: no discontinuations due to AEs
- severity of AEs [4, 8]: mild or moderate
- PK, dose proportionality [5]: proportional PK
- safety and tolerability [5]: safe and well tolerated
- abundance of available adenosine triphosphate (ATP) ([6]; mitochondrial disease patient cells): increasing the abundance of available adenosine triphosphate (ATP)
- expression levels of DDAH2 ([6]; patient cells): increased expression levels
- expression levels of TFAM ([6]; patient cells): increased expression levels
- rotenone-induced astrogliosis (mice): lower rotenone-induced astrogliosis
